Measured values reported in patent US20100160369A1, “S1P1 Agonists and Methods of Making And Using” (EXELIXIS, INC., priority 2008, published 2010).

How the values were obtained:
S1P1 [1] = target: T1, S1P1 (Homo sapiens, UniProt P21453); experiment: DELFIA GTP-Eu Binding Assay (Assay 3b); assay type: biochemical; parameters: purchased Lonza; host or cells: CHO cell membranes
Protocol: The DELFIA GTP-Eu binding assay (PerkinElmer) is a time-resolved fluorometric assay based on GDP-GTP exchange. CHO cell membranes (Lonza) expressing human S1P1 were incubated in 96-well filter plates (Pall, East Hills, N.Y.) in a final volume of 100 μL/well buffer containing 40 μg/mL membrane, 50 mM HEPES, 2 μM GDP, 10 mM MgCl2, 100 mM NaCl, 500 μg/mL Saponin and test compound. Test compounds were tested at maximum concentrations of 10 μM. Compounds were diluted (10 concentration points, 3-fold each) and added to the assay plate at a 1% final DMSO concentration. For each compound, there were duplicate assay plates and each assay plate had duplicate wells per concentration point. The plates were incubated for 30 min at room temperature on a plate shaker at low speed. GTP-Eu was added to each well (10 μL, 10 nM final concentration) and the plate was incubated for an additional 30 min with slow shaking The wells were washed with ice cold GTP washing buffer (3×150 μL) using a vacuum manifold and the assay plates read in an EnVision plate reader (PerkinElmer) at an excitation wavelength of 340 nm and an emission wavelength of 615 nm. To determine agonist activity, percent activity was calculated as [(test compound−background)/(positive control−background)*100], where background is the fluorescence in absence of compound and the positive control is the fluorescence from membranes incubated with 1 μM S1P (Avanti). The percent activities were plotted against compound concentration to determine IC50 or EC50 using XLFit (IDBS).
(§1) Assay 1 is the CNG cAMP Assay as described in Biological Example 1. Assay 2a and 2b are the Tango™ β-arrestin Recruitment Assay in HEK293 and U2OS cells, respectively, as described in Biological Example 2. Assay 3a is the hS1P1R GTPγS Binding Assay as described in Biological Example 3. Assay 3b is the GTP-Eu Binding Assay as described in Biological Example 3. EC50's were measured unless otherwise noted. […] In the table, “nt” means the Compound was not tested and “no” means the compound was tested but had no measurable activity under the assay conditions employed.
Target sequence in this assay (P21453 whole entry): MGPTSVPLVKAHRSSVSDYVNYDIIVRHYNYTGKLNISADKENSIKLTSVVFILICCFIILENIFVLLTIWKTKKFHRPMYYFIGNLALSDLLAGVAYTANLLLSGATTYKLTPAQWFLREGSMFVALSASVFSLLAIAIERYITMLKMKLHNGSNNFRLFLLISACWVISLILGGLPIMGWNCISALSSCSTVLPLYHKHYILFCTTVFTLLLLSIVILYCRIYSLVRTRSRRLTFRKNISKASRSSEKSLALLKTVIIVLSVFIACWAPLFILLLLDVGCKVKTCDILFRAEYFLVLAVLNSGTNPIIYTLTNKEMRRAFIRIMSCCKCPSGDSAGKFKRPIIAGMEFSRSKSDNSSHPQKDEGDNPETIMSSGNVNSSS

S1P1 [2] = target: T1, S1P1; experiment: CNG cAMP Assay (Assay 1); assay type: cell-based; parameters: host or cells: HEK293 cells expressing the CNG channel; conditions: read-out: Assay 1 EC50
Outline: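 cAMP-gated CNG membrane-potential read-out (350/590 nm, T90/T0 ratio) in S1P1/CNG HEK293 cells after 90 min with compound plus NECA 500 nM, S1P 10 nM (EC95), Ro 20-1724 25 μM. Ten 3-fold points from 10 μM, 1.8% DMSO; percent activity vs NECA-only control gives EC50.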
Target sequence in this assay (P21453 whole entry): as above

S1P1 [3] = target: T1, S1P1; experiment: Tango β-arrestin Recruitment Assay in HEK293 cells (Assay 2a); assay type: cell-based; parameters: linker with TEV protease (N1a) cleavage site (C); host or cells: HEK293, transiently transfected; conditions: Tango β-arrestin Recruitment Assay, read-out: Assay 2a EC50
Outline: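 Agonist-driven β-arrestin2–TEV recruitment releases tTA to drive luciferase in transiently transfected HEK293 cells. Ten 3-fold dilutions from 10 μM top (1% DMSO), 16–18 h at 37 °C; EC50 fitted to percent activity versus DMSO background and 5 μM S1P efficacy control.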
Target sequence in this assay (P21453 whole entry): as above
Target sequence in this assay (P32121 whole entry partner): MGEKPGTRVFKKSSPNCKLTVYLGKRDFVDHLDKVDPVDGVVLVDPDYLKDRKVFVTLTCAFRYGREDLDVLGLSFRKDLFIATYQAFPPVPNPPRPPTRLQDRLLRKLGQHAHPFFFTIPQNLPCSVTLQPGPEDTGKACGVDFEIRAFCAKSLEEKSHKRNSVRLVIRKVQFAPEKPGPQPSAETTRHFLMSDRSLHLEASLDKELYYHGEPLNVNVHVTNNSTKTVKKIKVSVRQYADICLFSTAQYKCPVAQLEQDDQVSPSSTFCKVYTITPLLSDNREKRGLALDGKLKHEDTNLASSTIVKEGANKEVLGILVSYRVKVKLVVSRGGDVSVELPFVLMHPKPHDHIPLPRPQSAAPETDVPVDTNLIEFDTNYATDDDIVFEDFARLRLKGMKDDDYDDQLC

S1P1 [4] = target: T1, S1P1; experiment: Tango β-arrestin Recruitment Assay in U2OS cells (Assay 2b); assay type: cell-based; parameters: linker with TEV protease (N1a) cleavage site (C); conditions: Tango β-arrestin Recruitment Assay, read-out: Assay 2b EC50
Outline: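 Agonist EC50 from percent activity relative to 1 μM S1P efficacy control, using background-subtracted 460/530 nm emission ratios. Compounds (max 1 μM, ten 3-fold dilutions) incubated overnight at 37 °C with serum-starved S1P1 U2OS reporter cells, followed by 2 h β-lactamase reagent at room temperature.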
Target sequence in this assay (P21453 whole entry): as the sequence (P21453 whole entry) above
Target sequence in this assay (P32121 whole entry partner): as the sequence (P32121 whole entry partner) above

hS1P1R (hEdg1) = target: T2, hS1P1R (hEdg1) (Homo sapiens, UniProt P21453); experiment: hS1P1R GTPγS Binding Assay (Assay 3a); assay type: biochemical
T2 construct: purchased Lonza
Protocol: The hS1P1R GTPγS binding assay was carried out at room temperature in 96 well non-binding surface assay plates. The reaction in each well contained 4 μg hS1P1R (hEdg1) membrane protein (Lonza), 30 μM GDP, 0.1 nM [^35S]GTPγS, 0.25% fatty acid free BSA, and serially diluted hS1P1R agonist compound in 200 μL assay buffer (25 mM Tris-HCl PH 7.9, 100 mM NaCl, 3 mM MgCl2, and 0.2 mM EGTA). After one hour of incubation, 0.9 mg of WGA (Wheat Germ Agglutinin) SPA beads in 50 μL of assay buffer was added to each well. The SPA beads were spun down after an additional one hour incubation. The radioactivity of the bound GTPγS was counted by reading the assay plate using a MicroBeta.
as §1

[5] = relative EC50 was measured (footnote 1), read-out: Assay 3b Relative EC50

T2 sequence (P21453 whole entry): as the sequence (P21453 whole entry) above

Compound | EC50 (S1P1 [1]; read-out: Assay 3b EC50) | EC50 (S1P1 [2]) | EC50 (S1P1 [3]) | EC50 (S1P1 [1]; [5]) | EC50 (S1P1 [4]) | EC50 (hS1P1R (hEdg1))
O=C(O)CCc1ccc(-c2noc(-c3cn4cc(C(F)(F)F)cc(Cl)c4n3)n2)c(Cl)c1 [Entry 1] | 500 to 1000 nM | ≤ 100 nM | ≤ 100 nM | – | – | –
Cc1cc(CCC(=O)O)ccc1-c1noc(-c2cn3cc(C(F)(F)F)cc(Cl)c3n2)n1 [Entry 2] | 100 to 500 nM | ≤ 100 nM | ≤ 100 nM | – | – | –
O=C(O)CCc1cc(F)c(-c2noc(-c3cn4cc(C(F)(F)F)cc(Cl)c4n3)n2)c(F)c1 [Entry 10] | – | ≤ 100 nM | 100 to 500 nM | 1000 to 5000 nM | – | –
COc1cc(Cl)c2nc(-c3nc(-c4cc(F)c(CCC(=O)O)cc4Cl)no3)cn2c1 [Entry 61] | 100 to 500 nM | ≤ 100 nM | ≤ 100 nM | – | – | –
O=C(O)CCc1cc(Cl)c(-c2noc(-c3cn4cc(C(F)(F)F)cc(Br)c4n3)n2)cc1Cl [Entry 68] | – | ≤ 100 nM | ≤ 100 nM | – | ≤ 100 nM | ≤ 100 nM
O=C(O)C1CC1c1cc(Cl)c(-c2noc(-c3cn4cc(C(F)(F)F)cc(Cl)c4n3)n2)cc1F (centres unmarked) [Example 85, 2-(5-chloro-4-{5-[8-chloro-6-(trifluoromethyl)imidazo[1,2-a]pyridin-2-yl]-1,2,4-oxadiazol-3-yl}-2-fluorophenyl)cyclopropanecarboxylic acid] | 100 to 500 nM | ≤ 100 nM | ≤ 100 nM | – | – | –
OCCOc1cc(Cl)c(-c2noc(-c3cn4cc(C(F)(F)F)cc(Cl)c4n3)n2)cc1Cl [Example 288, 2-[(2,5-dichloro-4-{5-[8-chloro-6-(trifluoromethyl)imidazo[1,2-a]pyridin-2-yl]-1,2,4-oxadiazol-3-yl}phenyl)oxy]ethanol] | – | ≤ 100 nM | ≤ 100 nM | – | ≤ 100 nM | ≤ 100 nM
CC(O)COc1cc(Cl)c(-c2noc(-c3cn4cc(C(F)(F)F)cc(Cl)c4n3)n2)cc1Cl (centres unmarked) [Example 292, 1-[(2,5-dichloro-4-{5-[8-chloro-6-(trifluoromethyl)imidazo[1,2-a]pyridin-2-yl]-1,2,4-oxadiazol-3-yl}phenyl)oxy]propan-2-ol] | – | ≤ 100 nM | ≤ 100 nM | – | ≤ 100 nM | 100 to 500 nM
O=C(O)CCc1cc(Cl)c(-c2nc(-c3cn4cc(C(F)(F)F)cc(Cl)c4n3)no2)cc1Cl [Example 315, 3-(2,5-dichloro-4-{3-[8-chloro-6-(trifluoromethyl)imidazo[1,2-a]pyridin-2-yl]-1,2,4-oxadiazol-5-yl}phenyl)propanoic acid] | – | ≤ 100 nM | ≤ 100 nM | – | ≤ 100 nM | 100 to 500 nM

Now from value to compound:

EC50 (S1P1 [1]; read-out: Assay 3b EC50) | EC50 (S1P1 [2]) | EC50 (S1P1 [3]) | EC50 (S1P1 [1]; [5]) | EC50 (S1P1 [4]) | EC50 (hS1P1R (hEdg1)) | Compound
– | ≤ 100 nM | ≤ 100 nM | 500 to 1000 nM | – | – | O=C(O)CCc1ccc(-c2noc(-c3cn4cc(C(F)(F)F)cc(Cl)c4n3)n2)cc1F [Entry 6]
– | ≤ 100 nM | ≤ 100 nM | – | ≤ 100 nM | ≤ 100 nM | OC[C@H](O)COc1cc(Cl)c(-c2noc(-c3cn4cc(C(F)(F)F)cc(Cl)c4n3)n2)cc1Cl [Entry 39]
100 to 500 nM | ≤ 100 nM | ≤ 100 nM | – | – | – | O=C(O)/C=C/c1cc(Cl)c(-c2noc(-c3cn4cc(C(F)(F)F)cc(Cl)c4n3)n2)cc1F [Entry 63]
– | ≤ 100 nM | 100 to 500 nM | 1000 to 5000 nM | – | – | Cc1cc(C2CC2C(=O)O)ccc1-c1noc(-c2cn3cc(C(F)(F)F)cc(Cl)c3n2)n1 (centres unmarked) [Entry 69]
– | ≤ 100 nM | 100 to 500 nM | 1000 to 5000 nM | – | – | O=C(O)C1CC1c1ccc(-c2noc(-c3cn4cc(C(F)(F)F)cc(Cl)c4n3)n2)c(Cl)c1 (centres unmarked) [Example 42, 2-(3-chloro-4-{5-[8-chloro-6-(trifluoromethyl)imidazo[1,2-a]pyridin-2-yl]-1,2,4-oxadiazol-3-yl}phenyl)cyclopropanecarboxylic acid]
500 to 1000 nM | ≤ 100 nM | 100 to 500 nM | – | – | – | CS(=O)(=O)Nc1ccc(-c2noc(-c3cn4cc(C(F)(F)F)cc(Cl)c4n3)n2)c(Cl)c1 [Example 94, N-(3-chloro-4-{5-[8-chloro-6-(trifluoromethyl)imidazo[1,2-a]pyridin-2-yl]-1,2,4-oxadiazol-3-yl}phenyl)methanesulfonamide]
– | ≤ 100 nM | 100 to 500 nM | 1000 to 5000 nM | – | – | O=C(O)CCc1ccc(-c2nnc(-c3cn4cc(C(F)(F)F)cc(Cl)c4n3)o2)c(Cl)c1 [Example 99]
– | 100 to 500 nM | 100 to 500 nM | 1000 to 5000 nM | – | – | O=C(O)C1CN(Cc2ccc(-c3noc(-c4cn5cc(C(F)(F)F)cc(Cl)c5n4)n3)c(Cl)c2)C1 [Example 124, 1-[(3-chloro-4-{5-[8-chloro-6-(trifluoromethyl)imidazo[1,2-a]pyridin-2-yl]-1,2,4-oxadiazol-3-yl}phenyl)methyl]azetidine-3-carboxylic acid]
500 to 1000 nM | ≤ 100 nM | 100 to 500 nM | – | – | – | O=C(O)CCNCc1ccc(-c2noc(-c3cn4cc(C(F)(F)F)cc(Cl)c4n3)n2)c(Cl)c1 [Example 130, N-[(3-chloro-4-{5-[8-chloro-6-(trifluoromethyl)imidazo[1,2-a]pyridin-2-yl]-1,2,4-oxadiazol-3-yl}phenyl)methyl]-beta-alanine]
1000 to 5000 nM | ≤ 100 nM | 100 to 500 nM | – | – | – | O=C(O)CCNCc1ccc(-c2noc(-c3cn4cc(C(F)(F)F)cc(Br)c4n3)n2)c(Cl)c1 [Example 131, N-[(4-{5-[8-bromo-6-(trifluoromethyl)imidazo[1,2-a]pyridin-2-yl]-1,2,4-oxadiazol-3-yl}-3-chlorophenyl)methyl]-beta-alanine]
– | ≤ 100 nM | ≤ 100 nM | – | ≤ 100 nM | ≤ 100 nM | Cc1cc(CCC(=O)O)c(Cl)cc1-c1noc(-c2cn3cc(C(F)(F)F)cc(Br)c3n2)n1 [Example 196, 3-(4-{5-[8-bromo-6-(trifluoromethyl)imidazo[1,2-a]pyridin-2-yl]-1,2,4-oxadiazol-3-yl}-2-chloro-5-methylphenyl)propanoic acid]
– | ≤ 100 nM | ≤ 100 nM | – | ≤ 100 nM | 500 to 1000 nM | OC[C@H](O)COc1cc(Cl)c(-c2nnc(-c3cn4cc(C(F)(F)F)cc(Cl)c4n3)s2)cc1Cl [Example 252, (25)-3-[(2,5-dichloro-4-{5-[8-chloro-6-(trifluoromethyl)imidazo[1,2-a]pyridin-2-yl]-1,3,4-thiadiazol-2-yl}phenyl)oxy]propane-1,2-diol]
– | ≤ 100 nM | ≤ 100 nM | – | ≤ 100 nM | ≤ 100 nM | OC[C@@H](O)COc1cc(Cl)c(-c2noc(-c3cn4cc(C(F)(F)F)cc(Cl)c4n3)n2)cc1Cl [Example 289, (2R)-3-[(2,5-dichloro-4-{5-[8-chloro-6-(trifluoromethyl)imidazo[1,2-a]pyridin-2-yl]-1,2,4-oxadiazol-3-yl}phenyl)oxy]propane-1,2-diol]
